# Source: ChEMBL document CHEMBL2074500 (Drug Metab Dispos, 1999)
# T1: Solute carrier organic anion transporter family member 1A2 (Homo sapiens, UniProt P46721)
# T1 sequence (P46721 whole entry): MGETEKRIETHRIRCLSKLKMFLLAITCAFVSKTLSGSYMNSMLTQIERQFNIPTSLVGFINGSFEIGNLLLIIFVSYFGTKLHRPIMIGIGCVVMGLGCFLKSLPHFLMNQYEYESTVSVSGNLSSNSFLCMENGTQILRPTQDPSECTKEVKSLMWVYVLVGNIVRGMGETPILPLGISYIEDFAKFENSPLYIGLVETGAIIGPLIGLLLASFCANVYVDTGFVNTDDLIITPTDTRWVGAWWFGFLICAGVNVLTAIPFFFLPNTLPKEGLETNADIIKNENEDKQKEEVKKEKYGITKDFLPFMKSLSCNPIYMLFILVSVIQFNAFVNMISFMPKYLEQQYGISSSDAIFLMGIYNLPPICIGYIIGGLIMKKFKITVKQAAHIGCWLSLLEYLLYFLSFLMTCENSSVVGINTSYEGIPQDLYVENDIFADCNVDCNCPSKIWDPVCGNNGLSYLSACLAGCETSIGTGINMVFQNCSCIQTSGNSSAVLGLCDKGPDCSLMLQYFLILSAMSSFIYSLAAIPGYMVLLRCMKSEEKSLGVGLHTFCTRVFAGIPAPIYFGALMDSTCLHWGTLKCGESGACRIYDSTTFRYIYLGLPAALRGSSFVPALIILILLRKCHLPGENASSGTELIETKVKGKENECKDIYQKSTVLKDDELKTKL
# Columns and labels:
# [1] = molecular target: T1, Solute carrier organic anion transporter family member 1A2; experiment: TP_TRANSPORTER: inhibition of Fexofenadine uptake (Fexofenadine: 2 uM, PSC-833: 100 uM) in Xenopus laevis oocytes; type: functional, cell-based, Oocyte; settings: probe Fexofenadine
# [2] = molecular target: T1, Solute carrier organic anion transporter family member 1A2; experiment: TP_TRANSPORTER: inhibition of Fexofenadine uptake (Fexofenadine: 2 uM, Nelfinavir: 100 uM) in Xenopus laevis oocytes; type: functional, cell-based; design: scale not given: the % may be the effect or the level left; settings: oocyte
# [3] = molecular target: T2, ATP-dependent translocase ABCB1 (Mus musculus, UniProt P21447); experiment: TP_TRANSPORTER: increase in small intestine concentration in mdr1a(-/-) mouse; type: functional, organism-based; settings: in vivo
# T2 sequence (P21447 whole entry): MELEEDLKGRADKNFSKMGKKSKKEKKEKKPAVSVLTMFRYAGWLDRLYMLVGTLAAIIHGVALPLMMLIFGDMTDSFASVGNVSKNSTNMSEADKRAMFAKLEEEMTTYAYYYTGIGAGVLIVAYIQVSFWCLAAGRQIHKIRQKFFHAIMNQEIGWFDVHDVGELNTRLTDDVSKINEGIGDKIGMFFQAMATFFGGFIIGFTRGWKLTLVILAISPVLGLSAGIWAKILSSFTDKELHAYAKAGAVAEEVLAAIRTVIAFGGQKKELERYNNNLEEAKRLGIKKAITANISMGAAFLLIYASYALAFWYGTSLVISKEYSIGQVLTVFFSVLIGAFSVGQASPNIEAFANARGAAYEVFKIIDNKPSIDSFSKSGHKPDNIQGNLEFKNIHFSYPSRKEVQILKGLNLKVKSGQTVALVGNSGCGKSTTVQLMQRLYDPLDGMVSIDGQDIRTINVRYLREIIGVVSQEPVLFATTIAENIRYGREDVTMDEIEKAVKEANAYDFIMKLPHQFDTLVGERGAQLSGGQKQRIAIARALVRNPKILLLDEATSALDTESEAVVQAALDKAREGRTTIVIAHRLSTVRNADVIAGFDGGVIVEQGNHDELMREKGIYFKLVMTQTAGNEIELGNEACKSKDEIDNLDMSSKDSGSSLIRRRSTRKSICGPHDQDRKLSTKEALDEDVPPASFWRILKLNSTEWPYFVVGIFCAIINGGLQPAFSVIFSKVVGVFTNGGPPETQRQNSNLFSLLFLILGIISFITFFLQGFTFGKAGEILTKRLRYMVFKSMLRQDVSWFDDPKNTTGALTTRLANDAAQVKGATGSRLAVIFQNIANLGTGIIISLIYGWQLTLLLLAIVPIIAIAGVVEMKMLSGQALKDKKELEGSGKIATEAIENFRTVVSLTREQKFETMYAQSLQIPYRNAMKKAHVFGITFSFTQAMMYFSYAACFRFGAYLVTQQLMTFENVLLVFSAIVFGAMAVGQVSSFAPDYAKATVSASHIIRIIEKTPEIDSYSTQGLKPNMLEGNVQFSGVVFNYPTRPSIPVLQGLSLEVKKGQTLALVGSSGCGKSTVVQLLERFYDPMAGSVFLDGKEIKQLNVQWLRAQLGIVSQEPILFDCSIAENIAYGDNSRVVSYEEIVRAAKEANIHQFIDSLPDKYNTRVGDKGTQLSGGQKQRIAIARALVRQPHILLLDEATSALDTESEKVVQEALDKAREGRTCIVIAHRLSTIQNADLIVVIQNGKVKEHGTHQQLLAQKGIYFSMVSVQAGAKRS
# [4] = molecular target: T2, ATP-dependent translocase ABCB1; experiment: TP_TRANSPORTER: increase in spleen concentration in mdr1a(-/-) mouse; type: functional, organism-based; settings: in vivo
# [5] = molecular target: T2, ATP-dependent translocase ABCB1; experiment: TP_TRANSPORTER: increase in kidney concentration in mdr1a(-/-) mouse; type: functional, organism-based; settings: in vivo
# [6] = molecular target: T2, ATP-dependent translocase ABCB1; experiment: TP_TRANSPORTER: increase in heart concentration in mdr1a(-/-) mouse; type: functional, organism-based; settings: in vivo
# [7] = molecular target: T2, ATP-dependent translocase ABCB1; experiment: TP_TRANSPORTER: increase in plasma concentration in mdr1a(-/-) mouse; type: functional, organism-based; settings: in vivo
# [8] = molecular target: T2, ATP-dependent translocase ABCB1; experiment: TP_TRANSPORTER: increase in liver concentration in mdr1a(-/-) mouse; type: functional, organism-based; settings: in vivo
# [9] = molecular target: T1, Solute carrier organic anion transporter family member 1A2; experiment: TP_TRANSPORTER: inhibition of Fexofenadine uptake (Fexofenadine: 2 uM, Lovastatin: 100 uM) in Xenopus laevis oocytes; type: functional, cell-based, Oocyte; settings: probe Fexofenadine
# [10] = molecular target: T1, Solute carrier organic anion transporter family member 1A2; experiment: TP_TRANSPORTER: inhibition of Fexofenadine uptake (Fexofenadine: 2 uM, Ketoconazole: 100 uM) in Xenopus laevis oocytes; type: functional, cell-based; design: scale not given: the % may be the effect or the level left; settings: oocyte
# [11] = molecular target: T1, Solute carrier organic anion transporter family member 1A2; experiment: TP_TRANSPORTER: inhibition of Fexofenadine uptake (Fexofenadine: 2 uM, Erythromycin: 100 uM) in Xenopus laevis oocytes; type: functional, cell-based; design: scale not given: the % may be the effect or the level left; settings: oocyte
# [12] = molecular target: T1, Solute carrier organic anion transporter family member 1A2; experiment: TP_TRANSPORTER: inhibition of Fexofenadine uptake (Fexofenadine: 2 uM, Verapamil: 100 uM) in Xenopus laevis oocytes; type: functional, cell-based, Oocyte; settings: probe Fexofenadine
# [13] = molecular target: T1, Solute carrier organic anion transporter family member 1A2; experiment: TP_TRANSPORTER: inhibition of Fexofenadine uptake (Fexofenadine: 2 uM, Quinidine: 100 uM) in Xenopus laevis oocytes; type: functional, cell-based, Oocyte; settings: probe Fexofenadine, read-out: Activity
# [14] = molecular target: T1, Solute carrier organic anion transporter family member 1A2; experiment: TP_TRANSPORTER: inhibition of Fexofenadine uptake (Fexofenadine: 2 uM, Saquinavir: 100 uM) in Xenopus laevis oocytes; type: functional, cell-based; design: scale not given: the % may be the effect or the level left; settings: oocyte
# [15] = molecular target: T1, Solute carrier organic anion transporter family member 1A2; experiment: TP_TRANSPORTER: inhibition of Fexofenadine uptake (Fexofenadine: 2 uM, Indinavir: 100 uM) in Xenopus laevis oocytes; type: functional, cell-based; design: scale not given: the % may be the effect or the level left; settings: oocyte
# [16] = substrate: CC(C)(C(=O)O)c1ccc(C(O)CCCN2CCC(C(O)(c3ccccc3)c3ccccc3)CC2)cc1; experiment: TP_TRANSPORTER: uptake in Oatp2-expressing HeLa cells; type: functional, cell-based
molecule,measurement,setting,value
C/C=C/C[C@@H](C)C(=O)[C@H]1C(=O)N[C@@H](C(C)C)C(=O)N(C)CC(=O)N(C)[C@@H](CC(C)C)C(=O)N[C@@H](C(C)C)C(=O)N(C)[C@@H](CC(C)C)C(=O)N[C@@H](C)C(=O)N[C@H](C)C(=O)N(C)[C@@H](CC(C)C)C(=O)N(C)[C@@H](CC(C)C)C(=O)N(C)[C@@H](C(C)C)C(=O)N1C [VALSPODAR],inhibition at 100 µM,[1],85%
Cc1c(O)cccc1C(=O)N[C@@H](CSc1ccccc1)[C@H](O)CN1C[C@H]2CCCC[C@H]2C[C@H]1C(=O)NC(C)(C)C,Activity,[2],81%
CC(C)(C(=O)O)c1ccc(C(O)CCCN2CCC(C(O)(c3ccccc3)c3ccccc3)CC2)cc1 (stereo unspecified) [FEXOFENADINE],Activity,[3],substrate [+]
same,Activity,[4],substrate [+]
same,Activity,[5],substrate [+]
same,Activity,[6],substrate [+]
same,Activity,[7],substrate [+]
same,Activity,[8],substrate [+]
CC[C@H](C)C(=O)O[C@H]1C[C@@H](C)C=C2C=C[C@H](C)[C@H](CC[C@@H]3C[C@@H](O)CC(=O)O3)[C@H]21 [LOVASTATIN],inhibition at 100 µM,[9],95%
CC(=O)N1CCN(c2ccc(OCC3COC(Cn4ccnc4)(c4ccc(Cl)cc4Cl)O3)cc2)CC1 (stereo unspecified) [KETOCONAZOLE],Activity,[10],107%
CC[C@H]1OC(=O)[C@H](C)[C@@H](O[C@H]2C[C@@](C)(OC)[C@@H](O)[C@H](C)O2)[C@H](C)[C@@H](O[C@@H]2O[C@H](C)C[C@H](N(C)C)[C@H]2O)[C@](C)(O)C[C@@H](C)C(=O)[C@H](C)[C@@H](O)[C@]1(C)O [ERYTHROMYCIN],Activity,[11],66%
COc1ccc(CCN(C)CCCC(C#N)(c2ccc(OC)c(OC)c2)C(C)C)cc1OC (stereo unspecified),inhibition at 100 µM,[12],100%
C=C[C@H]1C[N@@]2CC[C@H]1C[C@@H]2[C@@H](O)c1ccnc2ccc(OC)cc12 [QUINIDINE],inhibition at 100 µM,[13],91%
CC(C)(C)NC(=O)[C@@H]1C[C@@H]2CCCC[C@@H]2CN1C[C@@H](O)[C@H](Cc1ccccc1)NC(=O)[C@H](CC(N)=O)NC(=O)c1ccc2ccccc2n1,Activity,[14],105%
CC(C)(C)NC(=O)[C@@H]1CN(Cc2cccnc2)CCN1C[C@@H](O)C[C@@H](Cc1ccccc1)C(=O)N[C@H]1c2ccccc2C[C@H]1O.O,Activity,[15],70%
Solute carrier organic anion transporter family member 1A4 (Rattus norvegicus) (protein) MGKSEKRVATHGVRCFAKIKMFLLALTCAYVSKSLSGTYMNSMLTQIERQFGIPTSIVGLINGSFEIGNLLLIIFVSYFGTKLHRPIMIGVGCAVMGLGCFLISLPHFLMGQYEYETILPTSNVSSNSFFCVENRSQTLNPTQDPSECVKEMKSLMWIYVLVGNIIRGIGETPIMPLGISYIEDFAKSENSPLYIGILETGMTIGPLIGLLLASSCANIYVDIESVNTDDLTITPTDTRWVGAWWIGFLVCAGVNILTSFPFFFFPKTLPKEGLQENVDGTENAKEKKHRKKAKEEKRGITKDFFVFMKSLSCNPIYMLFILISVLQFNAFINSFTFMPKYLEQQYGKSTAEVVFLMGLYMLPPICLGYLIGGLIMKKFKVTVKKAAHLAFWLCLSEYLLSFLSYVMTCDNFPVAGLTTSYEGVQHQLYVENKVLADCNTRCNCSTNTWDPVCGDNGLAYMSACLAGCEKSVGTGTNMVFQNCSCIQSSGNSSAVLGLCNKGPDCANKLQYFLIIAIFGCFIYSLAGIPGYMVLLRCIKSEEKSLGVGLHAFCIRILAGIPAPIYFGALIDRTCLHWGTLKCGEPGACRMYDINSFRRLYLGLPAALRGASFVPAFFILRLTRTFQFPGDIESSKTDHAEMKLTLKESECTEVLRSKVTED,Km,[16],6 µM
